Where “and” joins values, the source holds several entries; their conditions need not be identical. Equal values may be shown once.
Test system: DMS 114 tumor spheroids, viability % test/control
Experiment: Anticancer human tumor DMS 114 cell line growth inhibition;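 note: spheroids exposed to compounds for 7 days before read-out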;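 for viability, T/C: luminescence used as a proxy for viable cells; 100% = DMSO vehicle control viability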
Conditions: spheroids with HUVEC and MSC; for viability, T/C: stronger effect = lower value
In short: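 Single agents and combinations were tested on spheroids built from tumor cells plus HUVEC and hMSC, at half-log dilutions starting at or near clinical Cmax, else 10 microM; final DMSO 0.25% (v/v).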

Which results are given for `[2H]c1nc(C)nc([2H])c1-c1cc(NC[C@@H](C)c2cccc3c(C(=O)NC)ccnc23)ncn1` + CC[C@@]1(O)C(=O)OCc2c1cc1n(c2=O)Cc2cc3c(CN(C)C)c(O)ccc3nc2-1?
IC50 (curve of first compound, second compound 0.003 µM): > 10000 nM; IC50 (curve of first compound, second compound 0.00949 µM): > 10000 nM; IC50 (curve of first compound, second compound 0.03 µM): < 31.6 nM; IC50 (curve of first compound, second compound 0.0949 µM): < 31.6 nM; IC50 (curve of first compound, second compound 0.3 µM): < 31.6 nM; viability, T/C (second compound 0.003 µM, first compound 0.0316 µM): 114%; viability, T/C (second compound 0.003 µM, first compound 0.1 µM): 113%; viability, T/C (second compound 0.003 µM, first compound 0.316 µM): 112%; viability, T/C (second compound 0.003 µM, first compound 1 µM): 121%; viability, T/C (second compound 0.003 µM, first compound 3.16 µM): 105%; viability, T/C (second compound 0.003 µM, first compound 10 µM): 88.5%; viability, T/C (second compound 0.00949 µM, first compound 0.0316 µM): 93%; viability, T/C (second compound 0.00949 µM, first compound 0.1 µM): 96.2%; viability, T/C (second compound 0.00949 µM, first compound 0.316 µM): 92.4%; viability, T/C (second compound 0.00949 µM, first compound 1 µM): 79%; viability, T/C (second compound 0.00949 µM, first compound 3.16 µM): 68.3%; viability, T/C (second compound 0.00949 µM, first compound 10 µM): 58.9%; viability, T/C (second compound 0.03 µM, first compound 0.0316 µM): 35.3%; viability, T/C (second compound 0.03 µM, first compound 0.1 µM): 35%; viability, T/C (second compound 0.03 µM, first compound 0.316 µM): 32.8%; viability, T/C (second compound 0.03 µM, first compound 1 µM): 27.7%; viability, T/C (second compound 0.03 µM, first compound 3.16 µM): 24%; viability, T/C (second compound 0.03 µM, first compound 10 µM): 18.9%; viability, T/C (second compound 0.0949 µM, first compound 0.0316 µM): 17%; viability, T/C (second compound 0.0949 µM, first compound 0.1 µM): 16.7%; viability, T/C (second compound 0.0949 µM, first compound 0.316 µM): 17.1%; viability, T/C (second compound 0.0949 µM, first compound 1 µM): 16.9%; viability, T/C (second compound 0.0949 µM, first compound 3.16 µM): 13.7%; viability, T/C (second compound 0.0949 µM, first compound 10 µM): 13.7%; viability, T/C (second compound 0.3 µM, first compound 0.0316 µM): 11%; viability, T/C (second compound 0.3 µM, first compound 0.1 µM): 11%; viability, T/C (second compound 0.3 µM, first compound 0.316 µM): 11.4%; viability, T/C (second compound 0.3 µM, first compound 1 µM): 9.27%; viability, T/C (second compound 0.3 µM, first compound 3.16 µM): 12.8%; viability, T/C (second compound 0.3 µM, first compound 10 µM): 12.3%

Which results are given for `Cc1sc2c(c1C)C(c1ccc(Cl)cc1)=NC(CC(=O)Nc1ccc(O)cc1)c1nnc(C)n1-2` (configuration not stated)?
viability, T/C (compound 0.00949 µM): 99% and 105% and 95%; viability, T/C (compound 0.03 µM): 111% and 108% and 107%; viability, T/C (compound 0.0949 µM): 69.5% and 72.7% and 55.8%; viability, T/C (compound 0.3 µM): 27.6% and 24.4% and 18.9%; viability, T/C (compound 0.949 µM): 11.3% and 9.42% and 7.59%; viability, T/C (compound 3 µM): 7.11% and 4.64% and 4.8%; IC50 (curve of compound): 164 nM and 116 nM

— PubChem BioAssay AID1845202 (Molecular Pharmacology Branch, DTP, NCI, 2023)
